Here are results for 34 compounds from US8669249B2, “Poly (ADP-ribose) polymerase (PARP) inhibitors” (Takeda Pharmaceutical Company Limited, priority 2009, dated 2014).

One assay deals with T1, catalytic domain of Human PARP (Homo sapiens, UniProt P09874).
T1 construct: The catalytic domain of Human PARP was cloned and prepared; made in house
T1 sequence (P09874 788-1014 limits assumed): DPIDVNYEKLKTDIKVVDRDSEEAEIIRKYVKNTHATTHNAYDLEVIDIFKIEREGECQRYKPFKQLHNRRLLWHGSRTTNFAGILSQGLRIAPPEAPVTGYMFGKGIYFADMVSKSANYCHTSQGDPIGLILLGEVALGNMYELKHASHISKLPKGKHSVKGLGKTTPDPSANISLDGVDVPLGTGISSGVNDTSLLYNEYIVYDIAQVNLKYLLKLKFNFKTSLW
As to the kind of experiment: Biacore surface plasmon resonance affinity assay. In kind it is binding. The following applies: pKD=-log10 KD, KD in mol/L; Biacore T100, 25° C.; read-out: pKD (converted). In outline: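 Human PARP catalytic domain amine-coupled to CM5 chip; compounds run as 2-fold series in HBS-P with 1% DMSO, 0.5 mM TCEP, 5 mM MgCl2.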
(Surface plasmon resonance follows binding to a sensor surface in real time, without labels.)
Take `O=C1COc2ccc(S(=O)(=O)N3CCOCC3)cc2N1` [Compound 116, 6-(Morpholinosulfonyl)-2H-benzo[b][1,4]oxazin-3(4H)-one]: the Kd was 12600 to 79400 nM.
On the same count and under the same terms, next, `CC1Oc2cc(CN3CC=C(c4ccc(Cl)cc4)CC3)ccc2NC1=O` (stereo not shown) [Compound 199, 7-((4-(4-Chlorophenyl)-5,6-dihydropyridin-1(2H)-yl)methyl)-2-methyl-2H-benzo[b][1,4]oxazin-3(4H)-one]: at least 100000 nM.
For the compound `O=C1Nc2cc(CN3CCC(c4ccccc4)CC3)ccc2OC1F` (stereo not shown) [Compound 96, 2-Fluoro-6-((4-phenylpiperidin-1-yl)methyl)-2H-benzo[b][1,4]oxazin-3(4H)-one], the Kd is 126 to 1000 nM.
Still for that read-out and setting: under `O=C1COc2ccc(CCN3CC=C(c4ccc(F)cc4)CC3)cc2N1` [Compound 126, 6-(2-(4-(4-Fluorophenyl)-5,6-dihydropyridin-1(2H)-yl)ethyl)-2H-benzo[b][1,4]oxazin-3(4H)-one] stands 1260 to 10000 nM; under `CC1Oc2ccc(CN3CCN(CCO)CC3)cc2NC1=O` (stereo not shown) [Compound 86, 6-((4-(2-Hydroxyethyl)piperazin-1-yl)methyl)-2-methyl-2H-benzo[b][1,4]oxazin-3(4H)-one], 12600 to 79400 nM; under `CC1Oc2ccc(-c3cccc(C(N)=O)c3)cc2NC1=O` (stereo not shown) [Compound 142, 3-(2-Methyl-3-oxo-3,4-dihydro-2H-benzo[b][1,4]oxazin-6-yl)benzamide], 1260 to 10000 nM.
With `CC1Oc2ccc(CN3CCCc4cc(O)ccc43)cc2NC1=O` (stereo not shown) [Compound 84, 6-((6-Hydroxy-3,4-dihydroquinolin-1(2H)-yl)methyl)-2-methyl-2H-benzo[b][1,4]oxazin-3(4H)-one], the Kd was above 10000 nM.
On the same count and under the same terms, next, `CONC(=O)c1ccc(-c2ccc3c(c2)NC(=O)C(C)O3)cc1` (stereo not shown) [Compound 152, N-Methoxy-4-(2-methyl-3-oxo-3,4-dihydro-2H-benzo[b][1,4]oxazin-6-yl)benzamide]: above 10000 nM; `CNC(=O)c1cccc(-c2ccc3c(c2)NC(=O)C(C)O3)c1` (stereo not shown) [Compound 143, N-Methyl-3-(2-methyl-3-oxo-3,4-dihydro-2H-benzo[b][1,4]oxazin-6-yl)benzamide]: above 10000 nM; `CC1Oc2ccc(CN(C)CCc3ccccc3)cc2NC1=O` (stereo not shown) [Compound 85, 2-Methyl-6-((methyl(phenethyl)amino)methyl)-2H-benzo[b][1,4]oxazin-3(4H)-one]: 1260 to 10000 nM.
Still for that read-out and setting: next, `CC1Oc2ccc(S(=O)(=O)N3CCOCC3)cc2NC1=O` (stereo not shown) [Compound 118, 2-Methyl-6-(morpholinosulfonyl)-2H-benzo[b][1,4]oxazin-3(4H)-one]: 1260 to 10000 nM; `CNC(=O)OCCCc1ccc2c(c1)NC(=O)C(C)O2` (stereo not shown) [Compound 189, 3-(2-Methyl-3-oxo-3,4-dihydro-2H-benzo[b][1,4]oxazin-6-yl)propyl methylcarbamate]: above 10000 nM.

The target in the next assay is T2, PARP (Homo sapiens, UniProt P09874).
T2 construct: purchased Trevigen 4684-096-K HT (kit); 4684-096-01 (PARP enzyme)
T2 sequence (P09874 whole entry): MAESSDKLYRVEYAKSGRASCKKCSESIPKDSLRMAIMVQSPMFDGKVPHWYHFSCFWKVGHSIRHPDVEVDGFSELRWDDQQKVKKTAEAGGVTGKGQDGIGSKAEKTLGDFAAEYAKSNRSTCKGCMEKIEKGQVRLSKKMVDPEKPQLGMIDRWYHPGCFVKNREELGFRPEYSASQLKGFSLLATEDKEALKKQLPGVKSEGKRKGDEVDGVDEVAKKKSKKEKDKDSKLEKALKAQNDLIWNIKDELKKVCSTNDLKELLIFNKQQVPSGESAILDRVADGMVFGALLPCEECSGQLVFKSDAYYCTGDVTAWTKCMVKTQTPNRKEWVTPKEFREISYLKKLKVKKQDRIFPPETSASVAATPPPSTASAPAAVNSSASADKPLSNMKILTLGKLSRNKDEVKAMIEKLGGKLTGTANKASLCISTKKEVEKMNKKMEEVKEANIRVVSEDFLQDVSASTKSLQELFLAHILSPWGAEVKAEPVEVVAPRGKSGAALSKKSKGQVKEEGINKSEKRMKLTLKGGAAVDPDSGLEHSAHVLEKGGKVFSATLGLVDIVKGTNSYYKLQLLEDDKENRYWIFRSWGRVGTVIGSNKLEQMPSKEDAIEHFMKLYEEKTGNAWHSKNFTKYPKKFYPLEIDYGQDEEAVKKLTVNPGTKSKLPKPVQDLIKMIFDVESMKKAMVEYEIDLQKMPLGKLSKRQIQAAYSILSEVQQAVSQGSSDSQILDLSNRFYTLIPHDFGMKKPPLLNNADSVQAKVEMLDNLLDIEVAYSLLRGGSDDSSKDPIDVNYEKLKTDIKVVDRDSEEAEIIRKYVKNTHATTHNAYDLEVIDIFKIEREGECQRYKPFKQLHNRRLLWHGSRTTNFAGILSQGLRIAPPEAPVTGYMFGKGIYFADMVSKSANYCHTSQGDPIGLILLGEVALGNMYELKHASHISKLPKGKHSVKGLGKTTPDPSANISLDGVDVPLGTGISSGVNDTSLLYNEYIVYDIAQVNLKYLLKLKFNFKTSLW
As to the kind of experiment: PARP ELISA (ELISA-based colorimetric PARP/Apoptosis Assay kit, Trevigen). The class given is biochemical. The following applies: pIC50=-log10 IC50, IC50 in mol/L; inhibition of PARP catalytic activity. The method, then: Inhibition Constant (IC50) from PARP ELISA
After 10 minutes of catalysis the reaction is quenched by solvent aspiration followed by irrigation of the assay wells 4 times with phosphate buffered saline (PBS) containing 0.1% t-Octylphenoxypolyethoxyethanol (Triton® X-100). Mouse Anti-poly ADP ribose (PAR) monoclonal antibody, goat antimouse immunoglobulin G (IgG)-horse radish peroxidase (HRP) conjugate and HRP substrate are added according to the manufacture's specifications to generate a colorimetric signal proportional to PARP catalytic activity.
(In general: An ELISA detects its analyte on a solid surface through an enzyme-linked reagent.)
Turning to `CNC(=O)c1ccc(N2CCC(Oc3ccc4c(c3)NC(=O)C(C)O4)CC2)cc1` (stereo not shown) [Compound 395, N-Methyl-4-(4-(2-methyl-3-oxo-3,4-dihydro-2H-benzo[b][1,4]oxazin-6-yloxy)piperidin-1-yl)benzamide], the 50% inhibitory concentration (IC50) – broadly, the concentration needed to halve the response being measured – was above 200 nM.
The same measure, in the same setting: under `CC1Oc2cc(F)c(CN3CCN(c4ccc(C(=O)O)cc4)CC3)cc2NC1=O` (stereo not shown) [Compound 334, 4-(4-((7-Fluoro-2-methyl-3-oxo-3,4-dihydro-2H-benzo[b][1,4]oxazin-6-yl)methyl)piperazin-1-yl)benzoic acid] stands above 200 nM.
Compound `Cc1c(CN2CCC(c3ccc(Cl)cc3)CC2)ccc2c1NC(=O)C(C)O2` (stereo not shown) [Compound 327, 6-((4-(4-Chlorophenyl)piperidin-1-yl)methyl)-2,5-dimethyl-2H-benzo[b][1,4]oxazin-3(4H)-one] had a concentration for half-maximal inhibition (IC50) above 200 nM.
Same read-out and setting: under `CCNC(=O)c1ccc(N2CCN(Cc3cc4c(c(-c5ccccc5)c3)OC(C)C(=O)N4)CC2)cc1` (stereo not shown) [Compound 349, N-Ethyl-4-(4-((2-methyl-3-oxo-8-phenyl-3,4-dihydro-2H-benzo[b][1,4]oxazin-6-yl)methyl)piperazin-1-yl)benzamide] stands above 200 nM.
With `CC1Oc2ccc(CN3CCN(c4ccc(C(=O)N(C)C)cc4)CC3)cc2NC1=O` (stereo not shown) [Compound 378, N,N-Dimethyl-4-(4-((2-methyl-3-oxo-3,4-dihydro-2H-benzo[b][1,4]oxazin-6-yl)methyl)piperazin-1-yl)benzamide], the 50% inhibitory concentration (IC50) is above 200 nM.
The same measure, in the same setting: next, `CC1Oc2c(F)cc(CN3CCN(c4ccc(C(=O)O)cn4)CC3)cc2NC1=O` (stereo not shown) [Compound 313, 6-(4-((8-Fluoro-2-methyl-3-oxo-3,4-dihydro-2H-benzo[b][1,4]oxazin-6-yl)methyl)piperazin-1-yl)nicotinic acid]: above 200 nM.
The compound `CCOC(=O)c1ccc(N2CCC(Oc3ccc4c(c3)NC(=O)C(C)O4)CC2)cc1` (stereo not shown) [Compound 394, Ethyl 4-(4-(2-methyl-3-oxo-3,4-dihydro-2H-benzo[b][1,4]oxazin-6-yloxy)piperidin-1-yl)benzoate] had an IC50 above 200 nM.
`CC1Oc2ccc(CC3CCN(c4ccc(C(=O)NC5CC5)cc4)CC3)cc2NC1=O` (stereo not shown) [Compound 392, N-Cyclopropyl-4-(4-((2-methyl-3-oxo-3,4-dihydro-2I-benzo[b][1,4]oxazin-6-yl)methyl)piperidin-1-yl)benzamide] showed an IC50 above 200 nM.
On the same count and under the same terms, under `CC1Oc2c(F)cc(CN3CCN(c4ccc(C(=O)NC5CC5)cn4)CC3)cc2NC1=O` (stereo not shown) [Compound 317, N-Cyclopropyl-6-(4-((8-fluoro-2-methyl-3-oxo-3,4-dihydro-2H-benzo[b][1,4]oxazin-6-yl)methyl)piperazin-1-yl)nicotinamide] stands 50.1 nM.
The same measure, in the same setting: under `CC1Oc2c(Cl)cc(CN3CCC(c4ccc(Cl)cc4)CC3)cc2NC1=O` (stereo not shown) [Compound 165, 8-Chloro-6-((4-(4-chlorophenyl)piperidin-1-yl)methyl)-2-methyl-2H-benzo[b][1,4]oxazin-3(4H)-one] stands at least 126 nM.
Consider `CCNC(=O)c1ccc(N2CCC(Cc3ccc4c(c3)NC(=O)C(C)O4)CC2)cc1` (stereo not shown) [Compound 393, N-Ethyl-4-(4-((2-methyl-3-oxo-3,4-dihydro-2H-benzo[b][1,4]oxazin-6-yl)methyl)piperidin-1-yl)benzamide], for which the IC50 was above 200 nM.
`C=CCc1cc(CN2CCN(c3ccc(C(=O)NCC)cc3)CC2)cc2c1OC(C)C(=O)N2` (stereo not shown) [Compound 356, 4-(4-((8-Allyl-2-methyl-3-oxo-3,4-dihydro-2H-benzo[b][1,4]oxazin-6-yl)methyl)piperazin-1-yl)-N-ethylbenzamide]: the IC50 was 79.4 nM.
The same measure, in the same setting: next, `CC1Oc2cc(F)c(CN3CCN(c4ccc(Cl)cc4)CC3)cc2NC1=O` (stereo not shown) [Compound 330, 6-((4-(4-Chlorophenyl)piperazin-1-yl)methyl)-7-fluoro-2-methyl-2H-benzo[b][1,4]oxazin-3(4H)-one]: above 200 nM; `CCNC(=O)c1ccc(N2CCN(Cc3cc(F)c4c(c3)NC(=O)C(C)O4)CC2)nc1` (stereo not shown) [Compound 315, N-Ethyl-6-(4-((8-fluoro-2-methyl-3-oxo-3,4-dihydro-2H-benzo[b][1,4]oxazin-6-yl)methyl)piperazin-1-yl)nicotinamide]: 50.1 nM.
Still for that read-out and setting: next, `CCNC(=O)c1ccc(N2CCC(Oc3ccc4c(c3)NC(=O)C(C)O4)CC2)cc1` (stereo not shown) [Compound 396, N-Ethyl-4-(4-(2-methyl-3-oxo-3,4-dihydro-2H-benzo[b][1,4]oxazin-6-yloxy)piperidin-1-yl)benzamide]: above 200 nM; `CC(C)NC(=O)c1ccc(N2CCN(Cc3cc(Cl)c4c(c3)NC(=O)C(C)O4)CC2)cc1` (stereo not shown) [Compound 310, 4-(4-((8-Chloro-2-methyl-3-oxo-3,4-dihydro-2H-benzo[b][1,4]oxazin-6-yl)methyl)piperazin-1-yl)-N-isopropylbenzamide]: 31.6 nM; `CC1Oc2ccc(CN3CCN(c4ccc(NC(=O)c5ccccc5)cc4)CC3)cc2NC1=O` (stereo not shown) [Compound 248, N-(4-(4-((2-Methyl-3-oxo-3,4-dihydro-2H-benzo[b][1,4]oxazin-6-yl)methyl)piperazin-1-yl)phenyl)benzamide]: at least 126 nM.
`CC(=O)Nc1ccc(N2CCN(Cc3ccc4c(c3)NC(=O)C(C)O4)CC2)cc1` (stereo not shown) [Compound 245, N-(4-(4-((2-Methyl-3-oxo-3,4-dihydro-2H-benzo[b][1,4]oxazin-6-yl)methyl)piperazin-1-yl)phenyl)acetamide]: the half-maximal inhibitory concentration (IC50) is at least 126 nM.
On the same count and under the same terms, next, `CC(C)NC(=O)c1ccc(N2CCC(Cc3ccc4c(c3)NC(=O)C(C)O4)CC2)cc1` (stereo not shown) [Compound 391, N-Isopropyl-4-(4-((2-methyl-3-oxo-3,4-dihydro-2I-benzo[b][1,4]oxazin-6-yl)methyl)piperidin-1-yl)benzamide]: above 200 nM; `CC1Oc2c(Cl)cc(CN3CCN(c4ccc(C(=O)O)cc4)CC3)cc2NC1=O` (stereo not shown) [Compound 307, 4-(4-((8-Chloro-2-methyl-3-oxo-3,4-dihydro-2H-benzo[b][1,4]oxazin-6-yl)methyl)piperazin-1-yl)benzoic acid]: above 200 nM.
Compound `CCC(=O)Nc1ccc(N2CCN(Cc3ccc4c(c3)NC(=O)C(C)O4)CC2)cc1` (stereo not shown) [Compound 246, N-(4-(4-((2-Methyl-3-oxo-3,4-dihydro-2H-benzo[b][1,4]oxazin-6-yl)methyl)piperazin-1-yl)phenyl)propionamide] gave an IC50 of at least 126 nM.
Still for that read-out and setting: next, `CCOC(=O)c1ccc(N2CCN(Cc3cc4c(cc3F)OC(C)C(=O)N4)CC2)cc1` (stereo not shown) [Compound 333, Ethyl 4-(4-((7-fluoro-2-methyl-3-oxo-3,4-dihydro-2H-benzo[b][1,4]oxazin-6-yl)methyl)piperazin-1-yl)benzoate]: above 200 nM.
